Data taken from ChEMBL document CHEMBL4152365, “Discovery of DS-6930, a potent selective PPARγ modulator. Part I: Lead identification” (Bioorg Med Chem, 2018).

Assays:
[1] = Plasma concentration in hyperglycemic KK/Ta mouse at 30 mg/kg/day, po administered through diet for 3 days measured on day 3 post last dose; type: ADME, organism-based
[2] = test system: Rattus norvegicus; assay: Glucose-lowering effect in Zucker diabetic fatty rat assessed as reduction in plasma glucose level at 30 mg/kg, po administered once daily for 14 days measured on day 14 post last dose relative to control; type: functional; set-up: scale not given: the % may be the effect or the level left
[3] = test system: Rattus norvegicus; assay: Toxicity in Zucker diabetic fatty rat assessed as body weight gain at 3 mg/kg, po administered once daily for 14 days relative to control; type: organism-based; conditions: in vivo, 336 h
[4] = Tmax in Zucker diabetic fatty rat at 3 mg/kg, po dosed once daily for 14 days and followed by additional administeration on day 15; type: ADME, organism-based; conditions: in vivo
[5] = test system: Rattus norvegicus; assay: Toxicity in Wistar-Imamichi rat assessed as elevation in ALT activity at 30 to 300 mg/kg, po administered via gavage once daily for 28 days; type: organism-based; conditions: in vivo, 672 h
[6] = test system: Rattus norvegicus; assay: Toxicity in Zucker diabetic fatty rat assessed as body weight gain at 0.3 mg/kg, po administered once daily for 14 days relative to control; type: organism-based; conditions: in vivo, 336 h
[7] = test system: Rattus norvegicus; assay: Toxicity in Wistar-Imamichi rat assessed as reduction in RBC count at 30 to 300 mg/kg, po administered via gavage once daily for 28 days; type: organism-based; conditions: in vivo, 672 h
[8] = Cmax in Wistar-Imamichi rat at 0.3 mg/kg, po via gavage once daily for 28 days measured on day 28 post dose; type: ADME, organism-based; set-up: dose 0.3 mg/kg, route oral; conditions: in vivo
[9] = test system: Rattus norvegicus; assay: Toxicity in Zucker diabetic fatty rat assessed as body weight gain at 30 mg/kg, po administered once daily for 14 days relative to control; type: organism-based; conditions: in vivo, 336 h
[10] = test system: Rattus norvegicus; assay: Toxicity in Wistar-Imamichi rat assessed as histopathological changes in liver at 30 to 300 mg/kg, po administered via gavage once daily for 28 days; type: organism-based; conditions: in vivo, 672 h
[11] = Cmax in Wistar-Imamichi rat at 30 mg/kg, po via gavage once daily for 28 days measured on day 28 post dose; type: ADME, organism-based; set-up: dose 30 mg/kg, route oral; conditions: in vivo
[12] = AUC (0 to 24 hrs) in Zucker diabetic fatty rat at 3 mg/kg, po dosed once daily for 14 days and followed by additional administeration on day 15; type: ADME, organism-based; set-up: dose 3 mg/kg, time < 24 hr, route oral; conditions: in vivo
[13] = Cmax in Zucker diabetic fatty rat at 0.3 mg/kg, po dosed once daily for 14 days and followed by additional administeration on day 15; type: ADME, organism-based; set-up: dose 0.3 mg/kg, route oral; conditions: in vivo
[14] = test system: Rattus norvegicus; assay: Toxicity in Wistar-Imamichi rat assessed as effect on hemodilution by measuring increase in heart weight at 300 mg/kg, po administered via gavage once daily for 28 days; type: organism-based; conditions: in vivo, 672 h
[15] = test system: Mus musculus; assay: Glucose-lowering effect in hyperglycemic KK/Ta mouse assessed as reduction in plasma glucose level at 30 mg/kg/day, po administered through diet for 3 days relative to control; type: functional; set-up: scale not given: the % may be the effect or the level left
[16] = Cmax in Wistar-Imamichi rat at 300 mg/kg, po via gavage once daily for 28 days measured on day 28 post dose; type: ADME, organism-based; set-up: dose 300 mg/kg, route oral; conditions: in vivo
[17] = Cmax in Zucker diabetic fatty rat at 3 mg/kg, po dosed once daily for 14 days and followed by additional administeration on day 15; type: ADME, organism-based; set-up: dose 3 mg/kg, route oral; conditions: in vivo
[18] = molecular target: T1, Peroxisome proliferator-activated receptor alpha (Homo sapiens, UniProt Q07869); assay: Agonist activity at recombinant human GAL4-DBD fused PPARalpha LBD expressed in COS7 cells after 24 hrs by luciferase reporter gene assay; type: cell-based
T1 sequence (Q07869 whole entry): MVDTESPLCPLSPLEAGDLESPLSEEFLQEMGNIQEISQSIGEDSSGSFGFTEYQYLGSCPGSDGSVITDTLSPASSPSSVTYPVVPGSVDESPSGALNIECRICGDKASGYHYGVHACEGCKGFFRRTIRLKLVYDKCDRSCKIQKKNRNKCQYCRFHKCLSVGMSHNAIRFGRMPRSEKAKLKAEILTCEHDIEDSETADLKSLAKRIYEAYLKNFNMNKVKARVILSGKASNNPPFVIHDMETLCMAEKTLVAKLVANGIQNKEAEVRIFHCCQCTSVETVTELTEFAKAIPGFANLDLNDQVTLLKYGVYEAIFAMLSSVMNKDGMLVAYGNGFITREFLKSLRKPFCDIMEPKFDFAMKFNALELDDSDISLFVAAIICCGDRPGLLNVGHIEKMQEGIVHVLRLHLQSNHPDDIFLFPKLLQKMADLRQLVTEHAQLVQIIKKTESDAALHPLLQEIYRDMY

[19] = test system: Mus musculus; assay: Toxicity in hyperglycemic KK/Ta mouse assessed as body weight gain at 30 mg/kg/day, po administered through diet for 3 days relative to control; type: organism-based; conditions: in vivo, 72 h
[20] = Tmax in Wistar-Imamichi rat at 300 mg/kg, po via gavage once daily for 28 days measured on day 28 post dose; type: ADME, organism-based; conditions: in vivo
[21] = Tmax in Wistar-Imamichi rat at 30 mg/kg, po via gavage once daily for 28 days measured on day 28 post dose; type: ADME, organism-based; conditions: in vivo
[22] = test system: Rattus norvegicus; assay: Glucose-lowering effect in Zucker diabetic fatty rat assessed as reduction in plasma glucose level at 0.3 mg/kg, po administered once daily for 14 days measured on day 14 post last dose relative to control; type: functional; set-up: scale not given: the % may be the effect or the level left
[23] = AUC (0 to 24 hrs) in Zucker diabetic fatty rat at 0.3 mg/kg, po dosed once daily for 14 days and followed by additional administeration on day 15; type: ADME, organism-based; set-up: time < 24 hr, dose 0.3 mg/kg, route oral; conditions: in vivo
[24] = AUC (0 to 24 hrs) in Wistar-Imamichi rat at 300 mg/kg, po via gavage once daily for 28 days measured on day 28 post dose; type: ADME, organism-based; set-up: dose 300 mg/kg, time < 24 hr, route oral; conditions: in vivo
[25] = Tmax in Wistar-Imamichi rat at 100 mg/kg, po via gavage once daily for 28 days measured on day 28 post dose; type: ADME, organism-based; conditions: in vivo
[26] = test system: Rattus norvegicus; assay: Toxicity in Wistar-Imamichi rat assessed as effect on hematocrit at 30 to 300 mg/kg, po administered via gavage once daily for 28 days; type: organism-based; conditions: in vivo, 672 h
[27] = Metabolic stability in rat liver microsomes after 0.5 hrs; type: ADME, microsome; conditions: read-out: Stability
[28] = test system: Rattus norvegicus; assay: Toxicity in Wistar-Imamichi rat assessed as elevation in AST activity at 30 to 300 mg/kg, po administered via gavage once daily for 28 days; type: organism-based; conditions: in vivo, 672 h
[29] = AUC (0 to 24 hrs) in Wistar-Imamichi rat at 100 mg/kg, po via gavage once daily for 28 days measured on day 28 post dose; type: ADME, organism-based; set-up: time < 24 hr, dose 100 mg/kg, route oral; conditions: in vivo
[30] = test system: Rattus norvegicus; assay: Glucose-lowering effect in Zucker diabetic fatty rat assessed as reduction in plasma glucose level at 3 mg/kg, po administered once daily for 14 days measured on day 14 post last dose relative to control; type: functional; set-up: scale not given: the % may be the effect or the level left
[31] = AUC (0 to 24 hrs) in Wistar-Imamichi rat at 30 mg/kg, po via gavage once daily for 28 days measured on day 28 post dose; type: ADME, organism-based; set-up: time < 24 hr, dose 30 mg/kg, route oral; conditions: in vivo
[32] = Tmax in Zucker diabetic fatty rat at 30 mg/kg, po dosed once daily for 14 days and followed by additional administeration on day 15; type: ADME, organism-based; conditions: in vivo
[33] = AUC (0 to 24 hrs) in Wistar-Imamichi rat at 0.3 mg/kg, po via gavage once daily for 28 days measured on day 28 post dose; type: ADME, organism-based; set-up: time < 24 hr, dose 0.3 mg/kg, route oral; conditions: in vivo
[34] = test system: Rattus norvegicus; assay: Toxicity in Wistar-Imamichi rat assessed as clinical abnormality at 30 to 300 mg/kg, po administered via gavage once daily for 28 days; type: organism-based; conditions: in vivo, 672 h
[35] = Tmax in Zucker diabetic fatty rat at 0.3 mg/kg, po dosed once daily for 14 days and followed by additional administeration on day 15; type: ADME, organism-based; conditions: in vivo
[36] = AUC (0 to 24 hrs) in Zucker diabetic fatty rat at 30 mg/kg, po dosed once daily for 14 days and followed by additional administeration on day 15; type: ADME, organism-based; set-up: time < 24 hr, dose 30 mg/kg, route oral; conditions: in vivo
[37] = test system: Rattus norvegicus; assay: Toxicity in Wistar-Imamichi rat assessed as death at 30 to 300 mg/kg, po administered via gavage once daily for 28 days; type: organism-based; conditions: in vivo, 672 h
[38] = Cmax in Zucker diabetic fatty rat at 30 mg/kg, po dosed once daily for 14 days and followed by additional administeration on day 15; type: ADME, organism-based; set-up: dose 30 mg/kg, route oral; conditions: in vivo
[39] = test system: Rattus norvegicus; assay: Toxicity in Zucker diabetic fatty rat assessed as body weight gain administered orally once daily for 14 day; type: organism-based; conditions: in vivo, po, 336 h
[40] = Cmax in Wistar-Imamichi rat at 100 mg/kg, po via gavage once daily for 28 days measured on day 28 post dose; type: ADME, organism-based; set-up: dose 100 mg/kg, route oral; conditions: in vivo

## Cn1c(COc2cccc(C(=O)O)c2)nc2ccc(Oc3ccc(Cl)c(F)c3)cc21
[1]
  concentration at 72 h: 570 ng/mL
[2]
  Activity: 74.9%
[3]
  Activity: 12.4%
[4]
  Tmax: 2.4 h
[5]
  Activity: Toxic
[6]
  Activity: 2.3%
[7]
  Activity: Non-Toxic
[8]
  Cmax: 180 ng/mL
[9]
  Activity: 16.7%
[10]
  Activity: Non-Toxic
[11]
  Cmax: 9100 ng/mL
[12]
  AUC at 24 h: 6750 ng·h/mL
[13]
  Cmax: 180 ng/mL
[14]
  Activity: 9.9%
[15]
  Activity: 43.2%
[16]
  Cmax: 22600 ng/mL
[17]
  Cmax: 920 ng/mL
[18]
  EC50: > 10 µM
[19]
  Activity: 4.4%
[20]
  Tmax: 3 h
[21]
  Tmax: 4 h
[22]
  Activity: 16.6%
[23]
  AUC at 24 h: 1740 ng·h/mL
[24]
  AUC at 24 h: 190 µg·h/mL
[25]
  Tmax: 5 h
[26]
  Activity: Non-Toxic
[27]
  remaining at 0.5 h: 94%
[28]
  Activity: Toxic
[29]
  AUC at 24 h: 192 µg·h/mL
[30]
  Activity: 43.8%
[31]
  AUC at 24 h: 93700 ng·h/mL
[32]
  Tmax: 2 h
[33]
  AUC at 24 h: 1740 ng·h/mL
[34]
  Activity: Non-Toxic
[35]
  Tmax: 6.8 h
[36]
  AUC at 24 h: 55800 ng·h/mL
[37]
  Activity: Non-Toxic
[38]
  Cmax: 8080 ng/mL
[39]
  Activity: Dose-dependent effect
[40]
  Cmax: 14900 ng/mL
